{"source": "PubChem BioAssay AID1845212", "about": "(Molecular Pharmacology Branch, DTP, NCI, 2023)", "tested_on": "NCI-H719 tumor spheroids, viability", "experiment": "Anticancer human tumor NCI-H719 cell line growth inhibition;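 on IC50: spheroids exposed to compounds for seven days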;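 on viability, T/C: spheroids exposed to compounds for seven days; percent viability relative to DMSO vehicle control as 100%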", "settings": "spheroids with HUVEC and MSC; for viability, T/C: stronger effect = lower value", "how_it_was_run": "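Complex spheroids of malignant cells with endothelial cells and mesenchymal stem cells; agents alone or combined, from near clinical Cmax (or 10 microM if unknown) down in half-log steps, 0.25% DMSO final.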", "note": "Where “and” joins values, the source holds several entries; their conditions need not be identical. Equal values may be shown once. Calls of active or inactive are those of the source. How the source made its calls: active means viability on the fitted dose curve at most 10% of control; inactive means the rest.", "data": [{"molecule": "CC(C)n1c(=O)n(C)c2cnc3cc(F)c(-c4ccc(OCCCN5CCCCC5)nc4)cc3c21", "note": "+ Cn1nnc2c(C(N)=O)ncn2c1=O", "values": [{"measurement": "IC50", "setting": "curve of first compound, second compound 1 µM", "value": "> 10000", "unit": "nM"}, {"measurement": "IC50", "setting": "curve of first compound, second compound 3.16 µM", "value": "> 10000", "unit": "nM"}, {"measurement": "IC50", "setting": "curve of first compound, second compound 10 µM", "value": "> 10000", "unit": "nM"}, {"measurement": "IC50", "setting": "curve of first compound, second compound 31.6 µM", "value": "> 10000", "unit": "nM"}, {"measurement": "IC50", "setting": "curve of first compound, second compound 100 µM", "value": "> 10000", "unit": "nM"}, {"measurement": "viability, T/C", "setting": "second compound 1 µM, first compound 0.0316 µM", "value": 94.3, "unit": "%"}, {"measurement": "viability, T/C", "setting": "second compound 1 µM, first compound 0.1 µM", "value": 107, "unit": "%"}, {"measurement": "outcome", "setting": "second compound 1 µM, first compound 0.316 µM", "value": "inactive"}, {"measurement": "viability, T/C", "setting": "second compound 1 µM, first compound 1 µM", "value": 79.8, "unit": "%"}, {"measurement": "viability, T/C", "setting": "second compound 1 µM, first compound 3.16 µM", "value": 139, "unit": "%"}, {"measurement": "viability, T/C", "setting": "second compound 1 µM, first compound 10 µM", "value": 95.2, "unit": "%"}, {"measurement": "viability, T/C", "setting": "second compound 3.16 µM, first compound 0.0316 µM", "value": 89.4, "unit": "%"}, {"measurement": "viability, T/C", "setting": "second compound 3.16 µM, first compound 0.1 µM", "value": 109, "unit": "%"}, {"measurement": "viability, T/C", "setting": "second compound 3.16 µM, first compound 0.316 µM", "value": 111, "unit": "%"}, {"measurement": "viability, T/C", "setting": "second compound 3.16 µM, first compound 1 µM", "value": 87.8, "unit": "%"}, {"measurement": "viability, T/C", "setting": "second compound 3.16 µM, first compound 3.16 µM", "value": 148, "unit": "%"}, {"measurement": "viability, T/C", "setting": "second compound 3.16 µM, first compound 10 µM", "value": 116, "unit": "%"}, {"measurement": "viability, T/C", "setting": "second compound 10 µM, first compound 0.0316 µM", "value": 109, "unit": "%"}, {"measurement": "viability, T/C", "setting": "second compound 10 µM, first compound 0.1 µM", "value": 104, "unit": "%"}, {"measurement": "viability, T/C", "setting": "second compound 10 µM, first compound 0.316 µM", "value": 103, "unit": "%"}, {"measurement": "viability, T/C", "setting": "second compound 10 µM, first compound 1 µM", "value": 89.2, "unit": "%"}, {"measurement": "viability, T/C", "setting": "second compound 10 µM, first compound 3.16 µM", "value": 141, "unit": "%"}, {"measurement": "viability, T/C", "setting": "second compound 10 µM, first compound 10 µM", "value": 112, "unit": "%"}, {"measurement": "viability, T/C", "setting": "second compound 31.6 µM, first compound 0.0316 µM", "value": 119, "unit": "%"}, {"measurement": "viability, T/C", "setting": "second compound 31.6 µM, first compound 0.1 µM", "value": 118, "unit": "%"}, {"measurement": "viability, T/C", "setting": "second compound 31.6 µM, first compound 0.316 µM", "value": 114, "unit": "%"}, {"measurement": "viability, T/C", "setting": "second compound 31.6 µM, first compound 1 µM", "value": 97.2, "unit": "%"}, {"measurement": "viability, T/C", "setting": "second compound 31.6 µM, first compound 3.16 µM", "value": 110, "unit": "%"}, {"measurement": "viability, T/C", "setting": "second compound 31.6 µM, first compound 10 µM", "value": 94.4, "unit": "%"}, {"measurement": "viability, T/C", "setting": "second compound 100 µM, first compound 0.0316 µM", "value": 104, "unit": "%"}, {"measurement": "viability, T/C", "setting": "second compound 100 µM, first compound 0.1 µM", "value": 86.8, "unit": "%"}, {"measurement": "viability, T/C", "setting": "second compound 100 µM, first compound 0.316 µM", "value": 83.7, "unit": "%"}, {"measurement": "viability, T/C", "setting": "second compound 100 µM, first compound 1 µM", "value": 74.6, "unit": "%"}, {"measurement": "viability, T/C", "setting": "second compound 100 µM, first compound 3.16 µM", "value": 82.5, "unit": "%"}, {"measurement": "viability, T/C", "setting": "second compound 100 µM, first compound 10 µM", "value": 68.5, "unit": "%"}]}, {"molecule": "COc1ccc([C@@H](O)c2cc(-c3ncnc4cc(N5CCOCC5)ccc34)c(F)cc2Cl)nn1", "values": [{"measurement": "viability, T/C", "setting": "compound 0.0316 µM", "value": "103% and 90.6% and 75%"}, {"measurement": "viability, T/C", "setting": "compound 0.1 µM", "value": "109% and 83.6% and 83.3%"}, {"measurement": "viability, T/C", "setting": "compound 0.316 µM", "value": "79.3% and 76.5% and 84.2%"}, {"measurement": "viability, T/C", "setting": "compound 1 µM", "value": "65.6% and 58.1% and 69%"}, {"measurement": "viability, T/C", "setting": "compound 3.16 µM", "value": "47.3% and 57.3% and 87.8%"}, {"measurement": "viability, T/C", "setting": "compound 10 µM", "value": "15.5% and 53.7% and 58.8%"}, {"measurement": "IC50", "setting": "curve of compound", "value": "2360 nM and > 10000 nM"}]}, {"molecule": "CNCc1ccc(-c2cc(-c3nc(-c4ccc(S(=O)(=O)C(C)C)cc4)cnc3N)on2)cc1", "note": "+ COc1cc2c(cc1O)CCNC21CSC2c3c(OC(C)=O)c(C)c4c(c3C(COC1=O)N1C(O)C3Cc5cc(C)c(OC)c(O)c5C(C21)N3C)OCO4", "values": [{"measurement": "IC50", "setting": "curve of first compound, second compound 30 pM", "value": 84.2, "unit": "nM"}, {"measurement": "IC50", "setting": "curve of first compound, second compound 94.9 pM", "value": "< 9.49", "unit": "nM"}, {"measurement": "IC50", "setting": "curve of first compound, second compound 0.0003 µM", "value": "< 9.49", "unit": "nM"}, {"measurement": "IC50", "setting": "curve of first compound, second compound 0.000949 µM", "value": "< 9.49", "unit": "nM"}, {"measurement": "IC50", "setting": "curve of first compound, second compound 0.003 µM", "value": "< 9.49", "unit": "nM"}, {"measurement": "viability, T/C", "setting": "second compound 30 pM, first compound 0.00949 µM", "value": 79.9, "unit": "%"}, {"measurement": "viability, T/C", "setting": "second compound 30 pM, first compound 0.03 µM", "value": 86.5, "unit": "%"}, {"measurement": "viability, T/C", "setting": "second compound 30 pM, first compound 0.0949 µM", "value": 45, "unit": "%"}, {"measurement": "viability, T/C", "setting": "second compound 30 pM, first compound 0.3 µM", "value": 15.5, "unit": "%"}, {"measurement": "viability, T/C", "setting": "second compound 30 pM, first compound 0.949 µM", "value": 10.5, "unit": "%"}, {"measurement": "viability, T/C", "setting": "second compound 30 pM, first compound 3 µM", "value": 1.88, "unit": "%"}, {"measurement": "viability, T/C", "setting": "second compound 94.9 pM, first compound 0.00949 µM", "value": 34.3, "unit": "%"}, {"measurement": "viability, T/C", "setting": "second compound 94.9 pM, first compound 0.03 µM", "value": 29.2, "unit": "%"}, {"measurement": "viability, T/C", "setting": "second compound 94.9 pM, first compound 0.0949 µM", "value": 14.2, "unit": "%"}, {"measurement": "viability, T/C", "setting": "second compound 94.9 pM, first compound 0.3 µM", "value": 8.3, "unit": "%"}, {"measurement": "viability, T/C", "setting": "second compound 94.9 pM, first compound 0.949 µM", "value": 9.95, "unit": "%"}, {"measurement": "viability, T/C", "setting": "second compound 94.9 pM, first compound 3 µM", "value": 0.36, "unit": "%"}, {"measurement": "viability, T/C", "setting": "second compound 0.0003 µM, first compound 0.00949 µM", "value": 8.48, "unit": "%"}, {"measurement": "viability, T/C", "setting": "second compound 0.0003 µM, first compound 0.03 µM", "value": 25.4, "unit": "%"}, {"measurement": "viability, T/C", "setting": "second compound 0.0003 µM, first compound 0.0949 µM", "value": 8.28, "unit": "%"}, {"measurement": "viability, T/C", "setting": "second compound 0.0003 µM, first compound 0.3 µM", "value": 10.4, "unit": "%"}, {"measurement": "viability, T/C", "setting": "second compound 0.0003 µM, first compound 0.949 µM", "value": 9.76, "unit": "%"}, {"measurement": "viability, T/C", "setting": "second compound 0.0003 µM, first compound 3 µM", "value": 0.75, "unit": "%"}, {"measurement": "viability, T/C", "setting": "second compound 0.000949 µM, first compound 0.00949 µM", "value": 8.38, "unit": "%"}, {"measurement": "viability, T/C", "setting": "second compound 0.000949 µM, first compound 0.03 µM", "value": 9.01, "unit": "%"}, {"measurement": "viability, T/C", "setting": "second compound 0.000949 µM, first compound 0.0949 µM", "value": 8.98, "unit": "%"}, {"measurement": "viability, T/C", "setting": "second compound 0.000949 µM, first compound 0.3 µM", "value": 9.91, "unit": "%"}, {"measurement": "viability, T/C", "setting": "second compound 0.000949 µM, first compound 0.949 µM", "value": 10.3, "unit": "%"}, {"measurement": "viability, T/C", "setting": "second compound 0.000949 µM, first compound 3 µM", "value": 0.62, "unit": "%"}, {"measurement": "viability, T/C", "setting": "second compound 0.003 µM, first compound 0.00949 µM", "value": 0.5, "unit": "%"}, {"measurement": "viability, T/C", "setting": "second compound 0.003 µM, first compound 0.03 µM", "value": 1.4, "unit": "%"}, {"measurement": "viability, T/C", "setting": "second compound 0.003 µM, first compound 0.0949 µM", "value": 0.58, "unit": "%"}, {"measurement": "viability, T/C", "setting": "second compound 0.003 µM, first compound 0.3 µM", "value": 0.82, "unit": "%"}, {"measurement": "viability, T/C", "setting": "second compound 0.003 µM, first compound 0.949 µM", "value": 0.56, "unit": "%"}, {"measurement": "viability, T/C", "setting": "second compound 0.003 µM, first compound 3 µM", "value": 1.15, "unit": "%"}]}, {"molecule": "CNCc1ccc(-c2cc(-c3nc(-c4ccc(S(=O)(=O)C(C)C)cc4)cnc3N)on2)cc1", "values": [{"measurement": "viability, T/C", "setting": "compound 0.00949 µM", "value": "96.3% and 108% and 109%"}, {"measurement": "viability, T/C", "setting": "compound 0.03 µM", "value": "103% (2×) and 107%"}, {"measurement": "viability, T/C", "setting": "compound 0.0949 µM", "value": "57.4% and 81.5% and 93.3%"}, {"measurement": "viability, T/C", "setting": "compound 0.3 µM", "value": "41.9% and 37.8% and 43.2%"}, {"measurement": "viability, T/C", "setting": "compound 0.949 µM", "value": "9.72% and 6.55% and 13.6%"}, {"measurement": "IC50", "setting": "curve of compound", "value": "158 nM and 216 nM and 264 nM"}]}]}
